Here are results for 20 compounds from PubChem BioAssay (NCI).

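Five concentrations, 48 hours, 96-well plates. At the GI50, growth is halved. TGI marks complete inhibition of growth.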

Experiment in all cases: DTP human tumour cell line panel, 48 h
Assay [1] has as its system A498 renal.
Assay [2] relates to A549 NSCLC.
Assay [3] deals with CAKI-1 renal.
Assay [4] relates to HOP-92 NSCLC.
For assay [5], the system named is NCI-H23 lung.
For assay [6], the system named is OVCAR-5 ovarian.
Assay [7] relates to SK-MEL-5 melanoma.
For assay [8], the system named is SN12C renal.
Assay [9] concerns TK-10 renal.
For assay [10], the system named is UACC-62 melanoma.

Consider `COc1cc(S(C)(=O)=O)ccc1Nc1nc2ccc(-c3ccc(NC(=O)[C@H](C)c4ccc(F)cc4)cc3)cn2n1`, for which the GI50 – broadly, the concentration that inhibits growth by half – in assay [1] is over 100 µM; in assay [2] it was 98.5 µM; in assay [3], over 100 µM; in assay [4] it was over 51.1 µM; in assay [5], over 100 µM; in assay [6], over 100 µM. Moreover, the GI50 in [7] was 0.4 µM; in [8], over 100 µM; in assay [9], over 100 µM; in assay [10], 75.6 µM. Besides, the TGI in [1], in assay [2], in assay [3], in [4], in assay [5] and in [6] was over 100 µM throughout. Also, the TGI in assay [7], in assay [8], in [9] and in [10] was over 100 µM throughout.

For the compound `Cn1c(=O)c2c(ncn2CN2CCN(Cn3cnc4c3c(=O)n(C)c(=O)n4C)CC2)n(C)c1=O`, the TGI in assay [1], in [2], in [3], in assay [4], in [5] and in assay [6] was over 100 µM throughout. Besides, the TGI in [7], in assay [8], in assay [9] and in assay [10] was over 100 µM throughout.

Take `Cc1ccc(NC(=O)Cn2c(Br)nc3c2c(=O)n(C)c(=O)n3C)cc1`: the GI50 was 2.01 µM in assay [1]; 5.61 µM in assay [2]; 4.32 µM in [3]; 1.9 µM in assay [4]; 6.31 µM in assay [5]; 3.69 µM in [6]. Besides, the GI50 was 2.31 µM in [7], 3.16 µM in assay [8], 3.2 µM in [9] and 11.1 µM in assay [10]. In addition, the TGI (usually the concentration at which net growth stops) in [1] stood at 5.87 µM; in assay [2], 24.5 µM; in assay [3] it was 16.3 µM; in assay [4], 5.29 µM; in assay [5] it was 22 µM; in assay [6], 13.9 µM. The total growth inhibition concentration (TGI) came to 5.57 µM in [7], 10.8 µM in assay [8], 9.93 µM in assay [9] and 24.2 µM in assay [10].

On to `Cn1cc(CNCC2CCN(c3ncc(C(=O)NO)cn3)CC2)c2ccccc21`, for which the GI50 in [1] was 0.0102 µM; in assay [2], 0.0123 µM; in assay [3], 0.0233 µM; in assay [4] it was under 0.0107 µM; in assay [5], 0.0218 µM; in assay [6], under 0.01 µM. The GI50 in [7] is under 0.0108 µM; in assay [8], 0.0344 µM; in assay [9], under 0.0107 µM; in assay [10] it was 0.0118 µM. Further, the TGI in [1] stood at 0.0274 µM; in [2], 0.519 µM; in assay [3], 0.169 µM; in [4], 0.0399 µM; in [5], 0.436 µM; in assay [6] it was 0.598 µM. Besides, the TGI in assay [7] was determined as 0.0307 µM; in [8] it was 15.7 µM; in assay [9], 0.0683 µM; in assay [10] it was 0.0415 µM.

Take `O=C1CC(=O)OC(c2ccc([N+](=O)[O-])cc2)O1`: the GI50 is 2.76 µM in assay [1]; 2.6 µM in assay [2]; 1.44 µM in assay [3]; 0.23 µM in [4]; 2.15 µM in assay [5]; 2.04 µM in [6]. The GI50 in assay [7] is 1.72 µM; in assay [8], 1.94 µM; in [9], 1.92 µM; in [10], 2.14 µM. In addition, the total growth inhibition concentration (TGI) in [1] turned out to be 7.72 µM; in [2] it was 7.78 µM; in assay [3], 3.24 µM; in assay [4], 3.71 µM; in assay [5], 5.2 µM; in [6], 4.93 µM. The concentration for total growth inhibition (TGI) in assay [7] was 3.39 µM; in [8] it was 4.23 µM; in [9], 4.53 µM; in assay [10], 5.54 µM.

Take `Fc1cccc(Cl)c1/C=N\N=C1c2ccccc2-c2ccccc21`: the concentration for total growth inhibition (TGI) in assay [1], in assay [2], in [3], in [4], in assay [5] and in assay [6] was over 100 µM throughout. The TGI in [7], in [8], in assay [9] and in assay [10] was over 100 µM in each case.

Turning to `O=C1CCCN1CC#CCN1CCCC1`, the GI50 in assay [1], in assay [2], in assay [3], in assay [4], in assay [5] and in assay [6] was over 100 µM throughout. The GI50 in assay [7], in [8], in assay [9] and in [10] was over 100 µM throughout. Further, the concentration for total growth inhibition (TGI) in [1], in [2], in assay [3], in [4], in assay [5] and in assay [6] was over 100 µM throughout. The TGI in assay [7], in assay [8], in assay [9] and in [10] was over 100 µM throughout.

As for `Cc1c2cc[n+](C)cc2c(C)c2c1[nH]c1ccc(O)c(OCC(F)(F)F)c12`, the TGI worked out at 32 µM in assay [1]; 12.4 µM in assay [2]; 29 µM in assay [3]; 17.4 µM in [4]; 5.48 µM in [5]; 30.5 µM in assay [6]. Moreover, the total growth inhibition concentration (TGI) in [7] came to 11.6 µM; in [8], 4.11 µM; in assay [9], 29.1 µM; in assay [10], 25.2 µM.

As to `O=[N+]([O-])c1ccc2c(c1)[O][Sn]([I])([I])[O]2`, the GI50 is over 100 µM in assay [1]; over 100 µM in assay [2]; over 100 µM in assay [3]; over 100 µM in [4]; 60 µM in [5]; over 100 µM in assay [6]. Moreover, the GI50 is over 100 µM in assay [7], over 100 µM in assay [8], over 100 µM in [9] and 52 µM in assay [10]. The TGI in [1], in assay [2], in [3], in [4], in [5] and in assay [6] was over 100 µM in each case. Also, the TGI in assay [7], in [8], in [9] and in assay [10] was over 100 µM throughout.

Consider `O=c1ccc(=O)c2c(=O)c3ccccc3c(=O)c1=2`, for which the TGI in assay [1], in assay [2], in assay [3], in assay [4], in [5] and in [6] was over 100 µM throughout. The total growth inhibition concentration (TGI) in assay [7] is 35.5 µM; in assay [8] it was over 100 µM; in assay [9], over 100 µM; in assay [10], over 100 µM.

Turning to `O=C1CCC(O)=C1O`, the total growth inhibition concentration (TGI) in assay [1], in assay [2], in assay [3], in assay [4], in [5] and in [6] was over 100 µM in each case. In addition, the TGI in [7], in [8], in [9] and in assay [10] was over 100 µM in each case.

Consider `CC1(C)C2CCC3(C2)CS(=O)(=O)N2OC231` (centres undefined), for which the TGI in assay [1] was 44.5 µM; in [2] it was over 100 µM; in [3], 30.4 µM; in [4], 25.2 µM; in assay [5] it was 33.4 µM; in [6] it was 71.9 µM. For the same compound, the total growth inhibition concentration (TGI) was found to be 44.8 µM in [7], 31.6 µM in assay [8], 32.9 µM in assay [9] and 31.8 µM in assay [10].

In the case of `Cc1c(Cl)cccc1NC(=O)CC1C(=O)Nc2ccccc2S1(=O)=O` (centres undefined), the TGI in [1] was determined as 28.9 µM; in assay [2], 33.2 µM; in assay [3], 38.8 µM; in [4], 31.7 µM; in [5] it was 37.3 µM; in [6], 41.5 µM. For the same compound, the TGI in assay [7] was determined as 26.7 µM; in assay [8] it was 31.9 µM; in [9] it was 56.6 µM; in assay [10], 31.7 µM.

Regarding `COc1ccc(Cl)cc1Nc1nc(C(F)(F)F)ccc1C(=O)N/N=C/c1cc(OC)c(OC)c(OC)c1`, the GI50 in [1] was 2.19 µM; in assay [2] it was 2.64 µM; in [3], 1.61 µM; in assay [4] it was 2.09 µM; in assay [5], 5.35 µM; in assay [6], 5.59 µM. The GI50 was 1.68 µM in assay [7], 2.09 µM in assay [8], 1.76 µM in assay [9] and 2.09 µM in assay [10]. Besides, the TGI in assay [1] came out at 7.65 µM; in [2], 6.64 µM; in assay [3] it was 4.98 µM; in assay [4], 7.56 µM; in assay [5] it was 40.6 µM; in assay [6], 24.4 µM. Besides, the TGI stood at 4.57 µM in assay [7], 18 µM in assay [8], 7.28 µM in assay [9] and 3.74 µM in assay [10].

On to `C/C(=N\NC(N)=S)c1nc2ccc(Cl)cc2[nH]1`, for which the GI50 is 7.11 µM in assay [1]; 2.3 µM in assay [2]; 0.287 µM in [3]; 12 µM in assay [4]; 5.51 µM in assay [5]; 5.71 µM in assay [6]. The GI50 was 2.7 µM in [7], 4.72 µM in assay [8], 2.6 µM in [9] and 2.2 µM in [10]. Also, the TGI in [1] is 22.5 µM; in [2], 9.95 µM; in [3], 1.74 µM; in assay [4] it was 39.1 µM; in [5] it was 13.7 µM; in [6] it was 18.1 µM. The TGI in assay [7] was 22.4 µM; in assay [8], over 50 µM; in [9], 20.7 µM; in assay [10], 33.8 µM.

Regarding `CC1CCN(CC(=O)N2c3ccccc3Sc3cc4ccccc4cc32)CC1`, the TGI in [1], in [2], in assay [3], in [4], in [5] and in assay [6] was over 100 µM throughout. Besides, the TGI in assay [7], in assay [8], in assay [9] and in assay [10] was over 100 µM throughout.

Turning to `Nc1nc(CCC(=O)Nc2cccc(C(F)(F)F)c2)cc(-c2ccc3ccccc3c2)n1`, the TGI in assay [1], in assay [2], in assay [3], in assay [4], in assay [5] and in assay [6] was over 100 µM in each case. The TGI in [7], in [8], in assay [9] and in assay [10] was over 100 µM throughout.

For `Cc1cc(=O)oc2cc(O)c(CN(C)CC(=O)O)cc12`, the TGI in assay [1], in [2], in assay [3], in assay [4], in assay [5] and in assay [6] was over 100 µM throughout. Moreover, the total growth inhibition concentration (TGI) in assay [7], in [8], in [9] and in assay [10] was over 100 µM in each case.

Consider `C[C-](O)O.O/C(=C\[C-](O)c1ccccc1)c1ccccc1.O/C(=C\[C-](O)c1ccccc1)c1ccccc1.[Nd+3]` (centres undefined), for which the GI50 in assay [1] is 11.7 µM; in assay [2] it was 18.2 µM; in assay [3], 11.9 µM; in assay [4] it was 12.9 µM; in [5] it was 4.69 µM; in assay [6] it was 12.6 µM. In addition, the GI50 in [7] was 5.22 µM; in [8], 5.99 µM; in assay [9], 20.9 µM; in assay [10] it was 6.56 µM. The TGI in [1] was determined as 43.1 µM; in [2], 48.9 µM; in [3], 42.2 µM; in assay [4], 35.3 µM; in assay [5], 29.4 µM; in [6], 33.1 µM. Further, the values for the TGI in [7], in assay [9] and in [10] were 18 µM, 94.2 µM and 45.3 µM, respectively.

Consider `O=Cc1ccc(-c2cccs2)s1`, for which the TGI was 5.21 µM in assay [1]; over 100 µM in assay [2]; 49.7 µM in [3]; over 68.1 µM in assay [4]; over 68.1 µM in assay [5]; 69.7 µM in assay [6]. For the same compound, the TGI in [7] was over 88.9 µM; in assay [8] it was over 100 µM; in assay [9], 11.7 µM; in [10], 4.42 µM.
